The results in this text go back to ChEMBL document CHEMBL1153281, “Synthesis and evaluation of aniline headgroups for alkynyl thienopyrimidine dual EGFR/ErbB-2 kinase inhibitors” (Bioorg Med Chem Lett, 2009).

Structures are written as SMILES.

The test system of one data set is HFF. In words: cells. The data set is classed as ADME, cell-based. The conditions noted are these: Homo sapiens.
The test system of another data set is Mus musculus. In words: Dose normalized AUC in mouse at 10 mg/kg, po after 6 hrs. The data set is classed as ADME, organism-based. Further details: time < 6 hr, dose 10 mg/kg, route oral. The conditions noted are these: in vivo.
A short description of data set [1]: Protein binding in rat plasma by HPLC. The data set is classed as ADME, cell-free. The settings on record: read-out: PPB (converted).
Data set [2] concerns the target T1, Receptor tyrosine-protein kinase erbB-2 (Homo sapiens, UniProt P04626). In words: Inhibition of ErbB2 by SPA assay.
A further data set has as its system BT-474. In words: Antiproliferative activity against human BT474 cells overexpressing ErbB2 after 3 days. Format: functional, cell-based. The settings on record: BT-474, 72 h.
Data set [3] deals with HN5. In words: Antiproliferative activity against human HN5 cells overexpressing EGFR after 3 days. The data set is classed as functional, cell-based. The conditions noted are these: HN5, 72 h.
Data set [4] deals with T2, Epidermal growth factor receptor (Homo sapiens, UniProt P00533).
T2 sequence (P00533 whole entry): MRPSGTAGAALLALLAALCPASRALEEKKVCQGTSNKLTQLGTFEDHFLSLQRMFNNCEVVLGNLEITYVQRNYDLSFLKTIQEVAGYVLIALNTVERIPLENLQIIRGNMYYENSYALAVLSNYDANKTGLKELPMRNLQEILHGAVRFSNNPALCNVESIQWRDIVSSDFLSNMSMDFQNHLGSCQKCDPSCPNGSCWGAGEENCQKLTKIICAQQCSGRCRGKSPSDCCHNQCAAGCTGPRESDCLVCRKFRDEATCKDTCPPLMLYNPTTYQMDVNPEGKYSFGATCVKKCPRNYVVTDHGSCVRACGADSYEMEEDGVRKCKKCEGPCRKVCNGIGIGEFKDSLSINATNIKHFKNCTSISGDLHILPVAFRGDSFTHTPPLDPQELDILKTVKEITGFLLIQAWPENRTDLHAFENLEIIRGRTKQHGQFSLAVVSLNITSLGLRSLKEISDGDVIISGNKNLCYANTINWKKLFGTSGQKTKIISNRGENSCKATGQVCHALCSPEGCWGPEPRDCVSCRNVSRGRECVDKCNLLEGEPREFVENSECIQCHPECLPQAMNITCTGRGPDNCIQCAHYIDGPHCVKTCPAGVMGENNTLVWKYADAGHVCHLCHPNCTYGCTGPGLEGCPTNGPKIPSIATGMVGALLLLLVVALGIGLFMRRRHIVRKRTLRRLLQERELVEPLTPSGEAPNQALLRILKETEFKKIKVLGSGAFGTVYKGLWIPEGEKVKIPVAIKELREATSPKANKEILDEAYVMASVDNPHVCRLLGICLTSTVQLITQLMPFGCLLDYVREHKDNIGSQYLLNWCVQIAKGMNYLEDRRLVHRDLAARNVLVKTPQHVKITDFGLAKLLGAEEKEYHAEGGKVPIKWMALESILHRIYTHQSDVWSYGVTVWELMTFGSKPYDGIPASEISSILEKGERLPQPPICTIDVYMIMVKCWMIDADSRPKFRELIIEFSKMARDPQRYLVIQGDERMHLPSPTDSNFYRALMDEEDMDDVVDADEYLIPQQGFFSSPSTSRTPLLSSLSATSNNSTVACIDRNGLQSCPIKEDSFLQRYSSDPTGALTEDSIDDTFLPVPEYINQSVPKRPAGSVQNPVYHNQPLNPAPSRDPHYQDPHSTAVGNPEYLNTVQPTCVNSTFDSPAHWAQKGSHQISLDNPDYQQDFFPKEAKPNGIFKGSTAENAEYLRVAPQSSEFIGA
Description: Inhibition of EGFR by HTRF assay
Data set [5] concerns the target T1, Receptor tyrosine-protein kinase erbB-2. In words: Inhibition of ErbB2 by HTRF assay.
Data set [6] relates to HN5. In words: Ratio of IC50 for human HN5 cells to IC50 for hman BT474 cells. The data set is classed as functional.
In data set [7] the target is T2, Epidermal growth factor receptor. In words: Inhibition of EGFR by SPA assay.

T1 sequence (P04626 whole entry): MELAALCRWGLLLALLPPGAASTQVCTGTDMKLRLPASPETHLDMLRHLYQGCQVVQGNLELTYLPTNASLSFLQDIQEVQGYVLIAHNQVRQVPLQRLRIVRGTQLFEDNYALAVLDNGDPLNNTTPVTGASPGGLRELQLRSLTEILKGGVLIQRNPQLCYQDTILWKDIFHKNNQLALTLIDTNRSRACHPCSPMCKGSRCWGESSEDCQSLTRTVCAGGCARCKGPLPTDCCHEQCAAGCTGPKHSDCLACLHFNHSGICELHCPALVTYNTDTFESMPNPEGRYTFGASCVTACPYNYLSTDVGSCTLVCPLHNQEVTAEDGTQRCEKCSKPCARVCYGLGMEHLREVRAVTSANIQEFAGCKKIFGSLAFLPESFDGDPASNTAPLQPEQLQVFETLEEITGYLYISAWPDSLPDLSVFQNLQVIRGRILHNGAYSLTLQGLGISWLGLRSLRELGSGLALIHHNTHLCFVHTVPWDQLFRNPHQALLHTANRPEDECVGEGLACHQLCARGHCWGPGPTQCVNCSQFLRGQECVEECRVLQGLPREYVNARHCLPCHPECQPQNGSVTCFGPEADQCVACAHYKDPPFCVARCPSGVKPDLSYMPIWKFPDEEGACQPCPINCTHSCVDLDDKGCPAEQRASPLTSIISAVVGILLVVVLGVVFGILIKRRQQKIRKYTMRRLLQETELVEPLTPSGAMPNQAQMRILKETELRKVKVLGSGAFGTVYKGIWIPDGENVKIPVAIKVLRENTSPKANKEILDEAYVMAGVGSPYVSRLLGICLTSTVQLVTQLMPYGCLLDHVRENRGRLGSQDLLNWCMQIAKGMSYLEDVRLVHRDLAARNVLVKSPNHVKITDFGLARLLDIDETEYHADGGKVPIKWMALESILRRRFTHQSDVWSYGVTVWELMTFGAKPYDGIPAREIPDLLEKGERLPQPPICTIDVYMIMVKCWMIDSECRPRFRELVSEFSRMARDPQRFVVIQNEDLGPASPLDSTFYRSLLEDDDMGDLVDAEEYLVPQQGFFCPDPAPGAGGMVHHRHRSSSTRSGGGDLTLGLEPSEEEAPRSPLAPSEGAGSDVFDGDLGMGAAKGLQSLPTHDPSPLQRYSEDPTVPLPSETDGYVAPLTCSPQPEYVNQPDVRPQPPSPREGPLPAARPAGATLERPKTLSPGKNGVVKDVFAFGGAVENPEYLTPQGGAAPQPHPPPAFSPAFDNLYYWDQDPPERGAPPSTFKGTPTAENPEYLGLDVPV

As to `O=C(O[C@H]1CN[C@H](C#Cc2cc3ncnc(Nc4ccc(OCc5ccccn5)c(Cl)c4)c3s2)C1)N1CCOCC1`, the IC50 was above 1000 nM in the data set with HFF, 30 nM in data set [2], 60 nM in the data set on BT-474 and 240 nM in the data set on HN5 [3]. In the data set with Mus musculus, this molecule had an AUC of 120 ng·h/mL/mg/kg. Also, the fraction unbound in data set [1] is 0.031.
Turning to `O=C(O[C@H]1CN[C@H](C#Cc2cc3ncnc(Nc4ccc5c(cnn5Cc5ccccc5)c4)c3s2)C1)N1CCOCC1`, the IC50 with HFF is above 1000 nM; in data set [4] it was 80 nM; in data set [5], 50 nM; in the data set on BT-474, 20 nM; in the data set with HN5 [3], 70 nM. In the data set on Mus musculus, this molecule displayed an AUC of 98 ng·h/mL/mg/kg. The fraction unbound in data set [1] is 0.027.
With `O=C(O[C@H]1CN[C@H](C#Cc2cc3ncnc(Nc4ccc(Oc5ccnc6ccc(F)cc56)c(Cl)c4)c3s2)C1)N1CCOCC1`, the IC50 in the data set on HFF is above 1000 nM; in data set [4], 280 nM; in data set [5] it was 180 nM; in the data set with BT-474, 140 nM; in the data set with HN5 [3], 390 nM. Moreover, in [1], the fraction unbound was 0.03.
Consider `O=C(O[C@H]1CN[C@H](C#Cc2cc3ncnc(Nc4ccc5c(ccn5CCc5ccccc5)c4)c3s2)C1)N1CCOCC1`, for which the IC50 in the data set with HFF is above 1000 nM; in data set [2], 2660 nM; in the data set on BT-474, 4850 nM; with HN5 [3], 2020 nM.
For `O=C(O[C@H]1CN[C@H](C#Cc2cc3ncnc(Nc4ccc5c(cnn5Cc5cccc(F)c5)c4)c3s2)C1)N1CCOCC1`, the IC50 is above 1000 nM in the data set with HFF and 70 nM in the data set on HN5 [3]. In the data set with Mus musculus, the AUC was determined as 51 ng·h/mL/mg/kg. The fraction unbound in data set [1] was 0.05.
As to `O=C(O[C@H]1CN[C@H](C#Cc2cc3ncnc(Nc4ccc5c(c4)c(F)cn5Cc4ccccc4)c3s2)C1)N1CCOCC1`, the IC50 was above 1000 nM in the data set with HFF; 240 nM in data set [4]; 210 nM in data set [5]; 120 nM with BT-474; 320 nM in the data set on HN5 [3].
`O=C(O[C@H]1CN[C@H](C#Cc2cc3ncnc(Nc4ccc(OCc5cscn5)c(Cl)c4)c3s2)C1)N1CCOCC1`: the IC50 in the data set on HFF was above 1000 nM; in [4], 120 nM; in [5], 60 nM; with BT-474, 70 nM; with HN5 [3], 440 nM. Further, the fraction unbound in data set [1] was 0.051.
With `O=C(O[C@H]1CN[C@H](C#Cc2cc3ncnc(Nc4ccc5c(ccn5Cc5cscn5)c4)c3s2)C1)N1CCOCC1`, the IC50 in the data set with HFF was above 1000 nM; in data set [4] it was 680 nM; in [5] it was 180 nM; in the data set on BT-474, 120 nM; with HN5 [3], 550 nM.
As for `O=C(O[C@H]1CN[C@H](C#Cc2cc3ncnc(Nc4ccc5c(Oc6ccccn6)cccc5c4)c3s2)C1)N1CCOCC1`, the IC50 in the data set with HFF was above 1000 nM; in data set [4], 1050 nM; in [5], 260 nM; in the data set on BT-474, 100 nM; in the data set on HN5 [3] it was 120 nM.
For the molecule `O=C(O[C@H]1CN[C@H](C#Cc2cc3ncnc(Nc4ccc(OCc5cccc(F)c5)c(Cl)c4)c3s2)C1)N1CCOCC1` [GW869810X], the IC50 with HFF was above 1000 nM; in the data set on BT-474 it was 90 nM; with HN5 [3], 260 nM. The molecule also registered an AUC in the data set with Mus musculus of 91 ng·h/mL/mg/kg. In data set [1], the fraction unbound was 0.02.
As to `O=C(O[C@H]1CN[C@H](C#Cc2cc3ncnc(Nc4ccc(Oc5ccccn5)c(Cl)c4)c3s2)C1)N1CCOCC1`, the IC50 in the data set on HFF was above 1000 nM; in [2] it was 60 nM; with BT-474 it was 80 nM; in the data set with HN5 [3] it was 280 nM. In the data set with Mus musculus, this molecule returned an AUC of 52 ng·h/mL/mg/kg. For the same molecule, in data set [1], the fraction unbound is 0.033.
Regarding `Cc1cc(Oc2ccc(Nc3ncnc4cc(C#C[C@@H]5C[C@@H](OC(=O)N6CCOCC6)CN5)sc34)cc2Cl)no1`, the 50% inhibitory concentration (IC50) in the data set with HFF is above 1000 nM; in [4], 400 nM; in data set [5], 370 nM; in the data set with BT-474 it was 130 nM; with HN5 [3] it was 1450 nM.
With `O=C(O[C@H]1CN[C@H](C#Cc2cc3ncnc(Nc4ccc(Sc5cccc(F)c5)c(Cl)c4)c3s2)C1)N1CCOCC1`, the IC50 with HFF is above 1000 nM; in [4] it was 630 nM; in [5] it was 800 nM; with BT-474 it was 150 nM; with HN5 [3], 310 nM. The fraction unbound in data set [1] is 0.024.
`O=C(O[C@H]1CN[C@H](C#Cc2cc3ncnc(Nc4ccc5c(ccn5Cc5ccccc5)c4)c3s2)C1)N1CCOCC1`: the IC50 with HFF was above 1000 nM; in [4], 90 nM; in [5], 60 nM; in the data set with BT-474, 110 nM; in the data set on HN5 [3], 190 nM.
Consider `CC(c1cccc(F)c1)n1ncc2cc(Nc3ncnc4cc(C#C[C@@H]5C[C@@H](OC(=O)N6CCOCC6)CN5)sc34)ccc21` (stereo partly specified), for which the IC50 is above 1000 nM with HFF; 120 nM in data set [4]; 130 nM in [5]; 130 nM in the data set with BT-474; 70 nM with HN5 [3].
In the case of `O=C(O[C@H]1CN[C@H](C#Cc2cc3ncnc(Nc4ccc5c(cnn5Cc5cc(F)ccc5F)c4)c3s2)C1)N1CCOCC1`, the “Ratio IC50” value in the data set on HN5 [6] amounted to 20. Further, the IC50 in the data set with HFF was above 1000 nM; in data set [4], 33 nM; in [5], 35 nM; in the data set on BT-474 it was 10 nM; in the data set on HN5 [3], 250 nM.
For the molecule `O=C(O[C@H]1CN[C@H](C#Cc2cc3ncnc(Nc4ccc(Sc5ccccn5)cc4)c3s2)C1)N1CCOCC1`, the IC50 is above 1000 nM with HFF; 1650 nM in [4]; 220 nM in data set [5]; 100 nM in the data set with BT-474; 380 nM with HN5 [3].
In the case of `O=C(O[C@H]1CN[C@H](C#Cc2cc3ncnc(Nc4ccc(OCc5cccc(F)c5)nc4)c3s2)C1)N1CCOCC1`, the 50% inhibitory concentration (IC50) in the data set on HFF was above 1000 nM; in data set [4] it was 2600 nM; in [5], 450 nM; in the data set on BT-474, 250 nM; in the data set on HN5 [3], 490 nM.
With `O=C(O[C@H]1CN[C@H](C#Cc2cc3ncnc(Nc4ccc5c(ccn5S(=O)(=O)c5ccsc5)c4)c3s2)C1)N1CCOCC1`, the IC50 was above 1000 nM in the data set with HFF; 150 nM in data set [7]; 120 nM in data set [2]; 120 nM in the data set on BT-474; 630 nM in the data set on HN5 [3].
With `O=C(O[C@H]1CN[C@H](C#Cc2cc3ncnc(Nc4ccc(Cc5ccccc5)cc4)c3s2)C1)N1CCOCC1`, the IC50 in the data set on HFF is above 1000 nM; in data set [4], 240 nM; with BT-474, 70 nM; with HN5 [3], 270 nM. Moreover, in data set [1], the fraction unbound is 0.036.
On to `O=C(O[C@H]1CN[C@H](C#Cc2cc3ncnc(Nc4ccc5c(cnn5S(=O)(=O)c5cccc(F)c5)c4)c3s2)C1)N1CCOCC1`, for which the IC50 in the data set with HFF is above 1000 nM; in [4], 230 nM; in data set [5], 85 nM; with BT-474 it was 110 nM; in the data set with HN5 [3], 540 nM.

In general, IC50 refers to the concentration that gives 50% inhibition. Higher therefore signals lower potency.
